The text below walks through data of publication PMC6960228, “Ethoxysanguinarine, a Novel Direct Activator of AMP-Activated Protein Kinase, Induces Autophagy and Exhibits Therapeutic Potential in Breast Cancer Cells” (Frontiers in Pharmacology, 2020).

Assay [1] concerns LC3-II and Beclin-1 in MCF-7, MDA-MB-231, and MDA-MB-436 cells. Description: Western blot of autophagy markers. Type of assay: cell-based, human. Conditions: Eth 2.4, 2.0 or 2.0 µM and 3-MA 1 mM, 24 h. The procedure:
Cells were lysed in radioimmunoprecipitation assay buffer containing 50 mM Tris, pH 8.0, 150 mM NaCl, 0.1% SDS, 0.5% sodium deoxycholate, 1% NP-40, 1 mM DTT, 1 mM NaF, 1 mM sodium orthovanadate, 1 mM phenylmethylsulfonyl fluoride (PMSF; Sigma-Aldrich; Merck KGaA), and 1% protease inhibitors cocktail (EMD Millipore, Billerica, MA, USA). Protein concentration was determined using the Bradford method. Equal amounts of sample (25 µg) were separated by SDS-PAGE (8–12% gels). Electrophoresed proteins were then transferred onto polyvinylidene fluoride membranes (EMD Millipore, Billerica, MA, USA). The membranes were blocked with 5% skimmed milk in Tris-buffered saline at room temperature for 1 h. Following blocking, membranes were incubated overnight at 4°C with primary antibodies and then rinsed with Tris-buffered saline with Tween 20. […]
(§1) Figure 2 Eth induces autophagy in BC cells. […] (C): MCF-7, MDA-MB-231, or MDA-MB-436 cells transfected with pQCXIP-GFP-LC3 plasmid were treated with increasing concentrations of Eth for 24 h, and assessed by immunoﬂuorescence analyses. […] (D): MDA-MB-231 or MDA-MB-436 cells transfected with pQCXIP-GFP-LC3 plasmid were treated with Eth (2.0 µM) and/or 3-MA (1 mM) for 24 h, and assessed by immunoﬂuorescence analyses. […] (F): MCF-7, MDA-MB-231, or MDA-MB-436 cells were treated with Eth (3.5 µM, 3.0 µM, or 3.0 µM) and/or 3-MA (1 mM) for 24 h and analyzed by MTT assay. […]
Background: In western blotting, separated proteins are transferred to a membrane and probed.

In assay [2] the test system is MCF-7, MDA-MB-231, or MDA-MB-436 cells. Description: MTT assay, Eth and/or 3-MA. Type of assay: cell-based, human. The conditions noted are these: Eth 3.5, 3.0 or 3.0 µM and 3-MA 1 mM, 24 h. The procedure:
(§2) Cells were seeded into 96-well plate and pre-cultured for 24 h, then treated with Eth for 24. Cell cytotoxicity was determined by MTT assay. The absorbance was measured at 490 nm by automated microplated reader (BioTek Instruments, Inc., Winooski, VT, USA), and the cell death rate was calculated as followed: inhibition rate (%) = (average A490 of the control group − average A490 of the experimental group)/(average A490 of the control group − average A490 of the blank group) × 100%. Cell viability was estimated by trypan blue dye exclusion.
as §1, with “cells. (A): MCF-7, MDA-MB-231, or MDA-MB-436 cells were treated with increasing concentrations of Eth for 24 h. Western blot was performed using antibodies indicated. GAPDH was used as the loading control.” for “cells.”
(In general: Formazan colour is commonly taken as a measure of viable cells.)

In assay [3] the test system is LC3 redistribution to autophagosomes in BC cells. Description: GFP-LC3 autophagy assay (confocal microscopy). Type of assay: cell-based, human. Conditions: 24 h. From the text:
The cells were transfected with pQCXIP-GFP-LC3 plasmid using the Lipofectamine 3000 (Invitrogen; Thermo Fisher Scientific, Inc.) according to the recommended protocol by the manufacturer and then fixed in 4% paraformaldehyde. The percentage of cells with fluorescent dots representing GFP-LC3 translocation was counted. For visualization of cell nucleus, DAPI was used. Sections were observed using an Olympus laser scanning confocal microscope with imaging software (Olympus Fluoview FV-1000, Tokyo, Japan).
Figure 2 Eth induces autophagy in BC cells. (A): MCF-7, MDA-MB-231, or MDA-MB-436 cells were treated with increasing concentrations of Eth for 24 h. Western blot was performed using antibodies indicated. GAPDH was used as the loading control. (B): MCF-7 (MDA-MB-231 or MDA-MB-436) cells were treated with 2.4 µM (2.0 µM or 2.0 µM) Eth for the indicated times, and cell lysates were subjected to western blot assay. (C): MCF-7, MDA-MB-231, or MDA-MB-436 cells transfected with pQCXIP-GFP-LC3 plasmid were treated with increasing concentrations of Eth for 24 h, and assessed by immunoﬂuorescence analyses. Scale bar = 20 µm. (D): MDA-MB-231 or MDA-MB-436 cells transfected with pQCXIP-GFP-LC3 plasmid were treated with Eth (2.0 µM) and/or 3-MA (1 mM) for 24 h, and assessed by immunoﬂuorescence analyses. Scale bar = 20 µm. […] (F): MCF-7, MDA-MB-231, or MDA-MB-436 cells were treated with Eth (3.5 µM, 3.0 µM, or 3.0 µM) and/or 3-MA (1 mM) for 24 h and analyzed by MTT assay. (G): MCF-7, MDA-MB-231, or MDA-MB-436 cells were treated with Eth (2.4 µM, 2.0 µM, or 2.0 µM) and/or 3-MA (1 mM) for 24 h, and western blot was performed using antibodies indicated. *P < 0.05.
(§3) Figure 3 Eth induces autophagy through the AMPK/mTORC1 signaling. […] (D): MDA-MB-231 or MDA-MB-436 cells transfected with pQCXIP-GFP-LC3 plasmid were treated with Eth (2.0 µM) and/or CC (25 µM) for 24 h, and assessed by immunoﬂuorescence analyses. […] (G): MDA-MB-231 or MDA-MB-436 cells transfected with pQCXIP-GFP-LC3 plasmid were treated with Eth (1.0 µM or 1.6 µM) and/or Met (10 mM) for 24 h, and assessed by immunoﬂuorescence analyses. […]

Another assay concerns MDA-MB-231. Description: MTT cytotoxicity assay. Type of assay: cell-based. The conditions noted are these: Homo sapiens, MDA-MB-231, 24 h.
Description: (§4) Human BC cell lines MCF-7, MDA-MB-231, DMA-MB-436, SK-BR3, MDA-MB-468, MDA-MB-453, and MDA-MB-435S and non-tumorigenic MCF-10A human mammary epithelial cells were obtained from American Type Culture Collection (ATCC; Manassas, VA, USA). MCF-7, SK-BR3, MDA-MB-231, and MDA-MB-436 cells were maintained in Dulbecco’s modified Eagle’s medium (DMEM; high glucose; Gibco; Thermo Fisher Scientific, Inc., Waltham, MA, USA) supplemented with 10% fetal bovine serum (FBS; HyClone; Logan, UT, USA) and antibiotics and incubated in a humidified atmosphere with 5% CO2 at 37°C. MDA-MB-468, MDA-MB-453, and MDA-MB-435S cells were maintained in Leibovitz’s L-15 (Gibco) supplemented with 10% FBS and antibiotics and incubated in a humidified atmosphere without CO2 at 37°C. MCF-10A cells were maintained in DMEM/F12 medium containing 5% horse serum (HS), insulin ([…]), epidermal growth factor (EGF, 20 ng/mL), choleratoxin ([…]), hydrocortisone ([…]), penicillin (50 U/mL), and streptomycin (50 U/mL), and incubated in a humidified atmosphere with CO2 at 37°C.
as §2

A further assay relates to MCF-7. Description: MTT cytotoxicity assay. Type of assay: cell-based. The conditions noted are these: Homo sapiens, MCF7, MCF-7, 24 h.
Description: as §4, §2

The test system of the next assay is MDA-MB-436. Description: MTT cytotoxicity assay. Format: cell-based. The conditions noted are these: Homo sapiens, MDA-MB-436, 24 h.
Description: as §4, §2

In another assay the test system is AMPKα. Description: Streptavidin agarose affinity assay. Type of assay: binding, human. Conditions: cells treated with 4 μM Bio-Eth for 12 h. The protocol: Cell pellets were lysed and the supernatant collection was incubated with indicated antibodies overnight at 4°C, after which protein A/G Plus beads (Santa Cruz Biotechnology) were added and incubated at 4°C for 4 h. The beads were washed 4 times in NETN buffer (1% NP-40, 2 mM EDTA, 40 mM Tris-HCl, 137 mM NaCl, pH 7.4), resuspended in SDS-PAGE loading buffer and boiled for 5 min. For streptavidin agarose affinity assay, cells upon Bio-Eth were lysed; the lysates were incubated with streptavidin agarose, washed and boiled in SDS-PAGE loading buffer. […] Western blot assays were performed.
Figure 4 Eth is a direct activator of AMPK. (A): MCF-7, MDA-MB-231, or MDA-MB-436 cells were treated with increasing concentrations of Eth for 24 h, and AMPK activity assay was performed. (B): The binding mode of Eth docked into AMPK. (C): The binding mode of Eth docked into AMPK. α subunit is green, β subunit is cyan, γ subunit is magenta and Eth is gold. (D): Details of the binding site of Eth in the ADaM site of AMPK. The main residues involved in drug interactions are shown as labeled green sticks. α subunit is green, β subunit is cyan. The pSER-108 was shown in stick and colored by gold. (E) The interaction pattern of Eth with the residues. […] (H): Viability of MCF-7, MDA-MB-231 or MDA-MB-436 cells exposed to Biotin-Eth as determined by MTT assay. […]

Assay [4] deals with AMPK/mTORC1 signaling in MCF-7, MDA-MB-231, and MDA-MB-436 cells. Description: Western blot of AMPK/mTORC1 signaling. Type of assay: cell-based, human. The conditions noted are these: 24 h. The procedure:
Cells were lysed in radioimmunoprecipitation assay buffer containing 50 mM Tris, pH 8.0, 150 mM NaCl, 0.1% SDS, 0.5% sodium deoxycholate, 1% NP-40, 1 mM DTT, 1 mM NaF, 1 mM sodium orthovanadate, 1 mM phenylmethylsulfonyl fluoride (PMSF; Sigma-Aldrich; Merck KGaA), and 1% protease inhibitors cocktail (EMD Millipore, Billerica, MA, USA). Protein concentration was determined using the Bradford method. Equal amounts of sample (25 µg) were separated by SDS-PAGE (8–12% gels). Electrophoresed proteins were then transferred onto polyvinylidene fluoride membranes (EMD Millipore, Billerica, MA, USA). The membranes were blocked with 5% skimmed milk in Tris-buffered saline at room temperature for 1 h. Following blocking, membranes were incubated overnight at 4°C with primary antibodies and then rinsed with Tris-buffered saline with Tween 20. The following primary antibodies were used: anti-Glut3 (1:500; catalog no. sc-74399) (Santa Cruz Biotechnology, Inc., Dallas, TX, USA); anti-LC3 (1:1000; catalog no. 12741), anti-AMPKα (1:1000; catalog no. 2532), anti-phospho-AMPKα (Thr172) (1:1000; catalog no. 2535), anti-phospho-AMPKβ1 (Ser108) (1:1000; catalog no. 4181), anti-AMPKγ1 (1:1000; catalog no. 4187), anti-mTOR (1:1000; catalog no. 2983), anti-phospho-mTOR (Ser2448) (1:1000; catalog no. 5536), anti-P70S6K (1:1000; catalog no. 9202), anti-phospho-P70S6K (Thr389) (1:1000; catalog no. 92775), anti-4E-BP1 (1:1000; catalog no. 9234), anti-phospho-4E-BP1 (Thr37/46) (1:1000; catalog no. 2855), anti-ACC (1:1000; catalog no. 3676), anti-phospho-ACC ([…]) (1:1000; catalog no. 11818), anti-Glut1 (1:1000; catalog no. 12939), anti-Glut4 (1:1000; catalog no. 2213) (All Cell Signaling Technology, Inc., Danvers, MA, USA), and anti-GAPDH (1:5000; catalog no. M20006; Abmart, Shanghai, China). Membranes were then washed, and incubated with horseradish peroxidase-conjugated secondary antibody (1:10000; E030120-01 and E030110-01; EarthOx, LLC, San Francisco, CA, USA) for 1.5 h at room temperature. The protein bands were visualized using SuperSignal® West Pico PLUS Chemiluminescent substrate (catalog no. 34579; Pierce; Thermo Fisher Scientific, Inc., Rockford, IL, USA) ([Zhang et al., 2018]).
as §3, with “signaling. (A): MCF-7, MDA-MB-231, or MDA-MB-436 cells were treated with increasing concentrations of Eth for 24 h. Western blot was performed using antibodies indicated.” for “signaling.”

Take `Cn1cnc(=N)c2[nH]cnc21` [3-MA]: the “effect of 3-MA on upregulation of LC-3II and Beclin1 by Eth” value in assay [1] is “antagonized the upregulation of autophagy-related proteins LC-3II and Beclin1”. The “effect of 3-MA on cell proliferation inhibited by Eth” value in assay [2] was “significantly reversed the cell proliferation inhibited by Eth”. For the same molecule, the “effect of 3-MA on induction of autophagy by Eth” value in assay [3] (Eth 2.0 µM and 3-MA 1 mM) is “antagonize the induction of autophagy by Eth”.

Turning to `CN1c2c(ccc3cc4c(cc23)OCO4)-c2ccc3c(c2C1OC(=O)CCCCC1SCC2NC(=O)NC21)OCO3` (stereo not shown) [Bio-Eth], the concentration for half-maximal inhibition (IC50) (commonly the concentration at which inhibition is half-maximal) in the assay on MDA-MB-231 came out at 3.74 µM; in the assay with MCF-7, 3.78 µM; in the assay on MDA-MB-436 it was 3.71 µM. Further, in the assay on AMPKα, the “pull-down of AMPKα by streptavidin agarose” value is on record as “AMPKα was pulled down by streptavidin agarose”.

For `c1cc(-c2cnn3cc(-c4ccc(OCCN5CCCCC5)cc4)cnc23)ccn1` [CC, reference compound], the “effect of CC on LC-3II expression and autophagic vacuoles in Eth-treated cells” value in assay [3] (Eth 2.0 µM and CC 25 µM) was “reversed the increased LC-3II expression and number of autophagic vacuoles”. Also, the “effect of CC on Eth-induced reduction in mTORC1 phosphorylation” value in assay [4] (Eth 2.4, 2.0 or 2.0 µM and CC 25 µM) is reported as “reversed the reduction in phosphorylation”.

For `CN(C)C(=N)N=C(N)N` [metformin, reference compound], in assay [4] (Eth 1.6, 1.0 or 1.6 µM and Met 10 mM), the “effect of metformin co-treatment on Eth action on mTORC1 phosphorylation and autophagy” value was “enhanced the effect of Eth on the phosphorylation of mTORC1 and autophagy”.
